Source: US6743923B2, “Antirheumatic agent” (Shionogi & Co., Ltd., priority 1997, dated 2004)
Marks after values point to notes of the source that are not given here.

What was measured:
[1] = test system: IL-6 production from neutrophil; assay: Inhibitory activity against IL-6 production, LPS-stimulated neutrophil fraction from human peripheral blood; type: cell-based; conditions: 10 μg/mL LPS, 16-18 hours, RIA
[2] = test system: IL-6 production from synovial membrane cells of RA patients; assay: Inhibitory activity against IL-6 production, synovial membrane cells from RA patient; type: cell-based, human; conditions: synovial membrane cells from RA patient
[3] = test system: articular destruction in adjuvant arthritis; assay: Rat adjuvant arthritis: inhibitory effect against articular destruction (X-ray score); type: in vivo
Procedure: A rat adjuvant arthritis model, which is commonly used in an in vivo evaluation for antirheumatic agents, was employed in this evaluation. To prepare an arthritis model, heat-killed cells of Mycobacterium butyricum (Difco) were suspended in mineral oil, and a rat was intradermally injected with 0.05 mL of 1% solution of the suspension at the plantar of left hind leg.
The right and left hind legs of the arthritis rats used in the above experiments were radiographed using a soft X-ray radiation and evaluated by the X-ray observation score for the bone destruction in the arthrosis. The effects were numerically evaluated by grading the articular destruction from 0 to 3 (0: normal; 1: low degree of articular and bone destruction; 2: medium degree of articular and bone destruction, and neogenesis of cartilage; 3: strong articular and bone destruction), and the efficacy in the drug-administered group was determined in comparison with the vehicle-administered group according to Wilcoxon U-test (*p<0.05, **p<0.01)(FIG. 2).

[4] = test system: IL-6 level in articular tissue; assay: Rat adjuvant arthritis: repressive effect on the IL-6 level in articular tissue; type: in vivo; conditions: oral, 18 days after adjuvant injection, non-injected leg
Procedure: Another adjuvant arthritis model animal was prepared apart from the above experiments, and a compound was orally administered to the animal for 18 days after the adjuvant injection. The non-injected leg was then amputated under anesthetization, epidermis of the amputated leg was ablated, the leg was frozen in liquid nitrogen, and the arthrosis part was crushed by a crushing machine. To a measured quantity of the crushed arthrosis, 3 mL of ice-cold PBS was added and homogenized with a homogenizer under ice-cooling. The resultant homogenate was centrifuged at 4° C. for 20 minutes at 3,000 rpm to collect the supernatant, which was then passed through a 0.45 μm filter to prepare a sample. The sample and MH60 BSF2 cells (derived from mouse, require IL-6) were incubated on a 96-well plate under defined conditions, and the absorbance was measured at two wave lengths of 540 nm and 690 nm. The IL-6 level in the sample was calculated based on the standard curve prepared using a recombinant human IL-6.

[5] = test system: NZB/KN mouse; assay: Inhibitory effect against bone destruction in spontaneous rheumatic model NZB/KN mouse; type: in vivo; conditions: male NZB/KN mice, oral, five times a week
Excerpt: To male NZB/KN mice, in which a human RA-like pathology arises spontaneously due to their immunologically abnormal background, was orally administered Compound Ia once in a day (five times a week) for six months beginning at two-month-age. The mice which reached six month old (some were eight month old) were full-length radiographed under anesthetization and predetermined conditions using a soft X-ray generator (OM-55, Omic). According to the method of Nakamura, et. al. [Arthritis. Rheum., 34, 171-179 (1991)], the number of the lesions observed in the bones and articular regions in the whole body were counted on the basis of the soft X-ray radiographed films, and the total number of the observed lesions were defined as the number of the bone disorders in the animal. The results were shown using mean±standard deviation, and significance test was performed according to Dunnett-t test (*p<0.05, ** p<0.01: vs. vehicle group).

[6] = test system: serum amyloid protein (SAP); assay: Effect on MRL/l mouse blood acute phase protein SAP; type: in vivo; conditions: oral, five times a week, 13 weeks
Procedure: After the last administration of the compound, blood was collected under anesthetization, and the serum was used for SAP measurement. SAP has been used as a marker for rheumatism. A 96-well plate was coated with rabbit anti-mouse SAP serum, and the serum to be tested was then added to the plate and incubated for 2 hours. After addition of sheep anti-mouse SAP serum, a rabbit anti-sheep IgG antibody labeled with alkaline phosphatase and then a substrate were added to the plate, and OD of developed color was measured at 405 nm.

[7] = test system: osteoclast formation in mouse myeloblast; assay: Inhibition of IL-1β-enhanced formation of osteoclast in mouse myeloblast culture; type: cell-based; conditions: 2.5 ng/mL human IL-1β, six days, TRAP positive multinucleate cells
Procedure: (§1) It has been known that the enhanced formation of osteoclast is induced in the mouse myeloblast culture by addition of IL-1β and such effect is derived from PGE2 production through COX-2 induction. In order to determine inhibitory effect of the compounds against such effect, myeloblasts were collected from a ddY male mice, plated in a 48-well plate at 1×10^6/well and incubated. After culturing for six days in an α-MEM medium containing 10% fetal bovine serum, to which 2.5 ng/mL of human IL-1β and a predetermined concentration of the compounds were added, PGE2 level in the supernatant was measured by RIA kit. On the other hand, cells adhering on the plate were immobilized, and an activity staining of tartaric acid resistant acid phosphatase (TRAP), which is a marker enzyme for osteoclast, was conducted, whereby the number of TRAP positive cells having multinucleate (N>3) per well was counted as osteoclast.

[8] = test system: PGE2 production; assay: Inhibition of PGE2 production due to IL-1β stimulation in mouse myeloblast culture; type: cell-based; conditions: 2.5 ng/mL human IL-1β, six days, RIA
Procedure: as §1

[9] = test system: NO production from activated macrophage; assay: Inhibitory activity against NO production from mouse activated macrophage; type: cell-based; conditions: LPS
Procedure: To BALB/c male mice was intraperitoneally administered 2 mL of a thioglycolate solution, and induced activated MΦ were collected after four days and used as NO producing cells. The cells were adjusted to 2×10^6 cells/mL and plated onto a 96-well microtiter plate at 2×10^5 cells/100 μL/well. 10 μL of 1 μg/mL of Compound Ia and LPS (lipopolysaccharide) were added thereto and incubated at 37° C. under 5% CO2 for 24 hours. 75 μL of the supernatant obtained after incubation and 75 μL of Griess reagent were incubated, and […] in the form of sodium nitrite was measured to determine the amount of NO in the supernatant.

[10] = test system: blood NOx level; assay: Suppressive effect on blood NOx level in adjuvant arthritis rat; type: in vivo; conditions: oral, 28 days
Procedure: An adjuvant arthritis model was prepared in the same manner as above, and the compounds were orally administered to the animals for 28 days beginning on the day before the adjuvant injection. Blood was then collected under anesthetization and the serum was ultracentrifuged. The supernatant was ultrafiltrated to prepare a sample for NOx (nitrite+nitrate) measurement.

CCN1CC/C(=C\c2cc(C(C)(C)C)c(O)c(C(C)(C)C)c2)S1(=O)=O [Compound Ia, (E)-2-Ethyl-5-(3,5-di-tert-butyl-4-hydroxy)benzylidene-1,2-isothiazolidine-1,1-dioxide]
IC50 [1]: 20 µM | IC50 [2]: 10 µM | dose with dose-dependent and significant inhibitory effect against the articular destruction ([3]; adjuvant-injected leg): ≥ 3 mg/kg/day | dose with dose-dependent and significant inhibitory effect against the articular destruction ([3]; non-injected leg): ≥ 1 mg/kg/day | dose with dose-dependent and significant inhibitory effect against the increase of the IL-6 level in the articular tissue [4]: ≥ 3 mg/kg/day | dose with significant improving effect on the bone-articular lesions [5]: ≥ 10 mg/kg/day | effect on blood SAP ([6]; 50 mg/kg/day): significant results | effect on blood SAP ([6]; 2-50 mg/kg/day): repressive tendency in a dose-dependent manner | IC50 [7]: 1.3 nM | IC50 [8]: 0.21 nM | NO^2- Production ([9]; 0.8 μM compound, 24 hours): 27.3 ± 0.94 μM/2 × 10^5 cells | NO^2- Production ([9]; 3.1 μM compound, 24 hours): 12.3 ± 2.50 μM/2 × 10^5 cells | NO^2- Production ([9]; 12.5 μM compound, 24 hours): <1.0*** μM/2 × 10^5 cells | NO^2- Production ([9]; 50 μM compound, 24 hours): <1.0*** μM/2 × 10^5 cells | NO^2- Production ([9]; 100 μM compound, 24 hours): <1.0*** μM/2 × 10^5 cells | concentration at which NO production was inhibited in a dose-dependent manner ([9]; mouse activated macrophage): 0.8 to 12.5 µM | IC50 ([9]; mouse activated macrophage, 24 hours): 3000 nM | dose with dose-dependent and significant inhibitory effect on the increase of blood NOx level [10]: ≥ 3 mg/kg/day
